# According to article PMC3042382, “The evolution of farnesoid X, vitamin D, and pregnane X receptors: insights from the green-spotted pufferfish (Tetraodon nigriviridis) and other non-mammalian species” (BMC Biochemistry, 2011):
# Like-named read-outs stand apart in the source and are kept apart here.
# Legend:
# [1] = target: T1, tnPXR (Tetraodon PXR, GAL4/LBD) (Tetraodon nigroviridis, UniProt H3D8U6); parameters: species or system HepG2-NTCP; GAL4/LBD chimera luciferase transactivation, normalised to beta-galactosidase, efficacy relative to maximal activator; details: agonist
# T1 construct: cloned from liver RNA
# T1 sequence (H3D8U6 123-404): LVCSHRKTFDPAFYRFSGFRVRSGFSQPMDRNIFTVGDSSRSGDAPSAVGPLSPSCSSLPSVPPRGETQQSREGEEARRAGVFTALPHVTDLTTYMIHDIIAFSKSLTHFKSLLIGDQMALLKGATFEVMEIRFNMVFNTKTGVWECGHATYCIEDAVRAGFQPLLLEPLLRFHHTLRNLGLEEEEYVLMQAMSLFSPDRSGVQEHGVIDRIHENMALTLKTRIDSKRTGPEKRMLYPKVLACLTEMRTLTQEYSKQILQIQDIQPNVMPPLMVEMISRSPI
# Protocol: (§1) The creation of a HepG2 (human liver) cell line stably expressing the human Na^+-taurocholate cotransporter (NTCP; SLC10A1) has been previously reported. HepG2-NTCP cells were grown in modified Eagle's medium-α containing 10% fetal bovine serum and 1% penicillin/streptomycin. The cells were grown at 37°C in 5% CO2. The chicken LMH hepatoma cell line (ATCC, Manassus, VA, USA) was grown in Waymouth's MB 752/1 medium (ATCC) with 10 fetal bovine serum. The Xenopus laevis A6 kidney cell line (ATCC) was grown in 75% NCTC 109 medium, 15% distilled water, and 10% fetal bovine serum at 26°C in 2% CO2. Except as noted above, all media and media supplements for the HepG2 and A6 cell lines were obtained from Invitrogen (Carlsbad, CA, USA). Co-transfections and transactivations assays were performed as previously described. The maximal activators and their concentrations were as follows: chVDR, xlVDR, and tnVDR - 200 nM 1α,25-(OH)2-vitamin D3; tnFXR - 5 μM GW4064; tnPXR - 50 μM 5α-androstan-3α-ol. All comparisons to maximal activators were done within the same microplate. Luciferase data were normalized to the internal β-galactosidase control and represent means ± SD of the assays. The LBD of chicken VDR was cloned from RNA extracted from the LMH cell line. The LBD of Xenopus laevis VDR was cloned from RNA extracted from the A6 cell line. The LBDs of tnFXR, tnVDR, and tnPXR were cloned from total RNA extracted from Tetraodon liver using sequence information from the draft Tetraodon nigriviridis genome. The LBDs of chVDR (amino acid residues 113-451), xlVDR (amino acid residues 91-422), tnFXR (amino acid residues 180-463), tnVDR (amino acid residues 91-426), and tnPXR (amino acid residues 202-483) were inserted into the pM2-GAL4 vector to create GAL4/LBD chimeras.
# [2] = target: T2, tnPXR (Tetraodon PXR, GAL4/LBD) (Tetraodon nigroviridis, UniProt H3D8U6); experiment: GAL4/LBD luciferase transactivation; assay type: cell-based; details: agonist, HepG2-NTCP cells
# T2 construct: cloned from liver RNA
# [3] = target: T1, tnPXR (Tetraodon PXR, GAL4/LBD); experiment: cell-based; parameters: GAL4/LBD chimera luciferase transactivation, normalised to beta-galactosidase, efficacy relative to maximal activator; details: HepG2-NTCP; relative to 50 uM 5α-androstan-3α-ol; read-out: Efficacy
# Protocol: as §1
# [4] = target: T3, tnVDR (Tetraodon VDR alpha, GAL4/LBD) (Tetraodon nigroviridis, UniProt A0A0A1CGS5); experiment: cell-based; parameters: GAL4/LBD chimera luciferase transactivation, normalised to beta-galactosidase, efficacy relative to maximal activator; details: HepG2-NTCP; relative to 200 nM 1α,25-(OH)2-vitamin D3; read-out: Efficacy
# T3 construct: gene VDRa; cloned from liver RNA
# T3 sequence (A0A0A1CGS5 91-420): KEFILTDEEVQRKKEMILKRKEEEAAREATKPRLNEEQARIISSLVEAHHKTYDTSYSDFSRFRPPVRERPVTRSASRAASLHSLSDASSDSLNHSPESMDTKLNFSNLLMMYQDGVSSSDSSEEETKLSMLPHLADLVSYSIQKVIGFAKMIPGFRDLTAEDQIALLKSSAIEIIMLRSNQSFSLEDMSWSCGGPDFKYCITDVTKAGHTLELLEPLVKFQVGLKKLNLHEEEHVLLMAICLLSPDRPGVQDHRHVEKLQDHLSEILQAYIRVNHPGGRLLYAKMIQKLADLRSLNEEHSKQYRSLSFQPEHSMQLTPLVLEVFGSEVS
# Protocol: as §1
# [5] = test system: T4, tnFXR (Tetraodon FXR, GAL4/LBD); experiment: GAL4/LBD luciferase transactivation; assay type: cell-based, Tetraodon nigroviridis; details: agonist, HepG2-NTCP cells
# T4 construct: gene NR1H4; cloned from liver RNA
# [6] = target: T5, chVDR (chicken VDR, GAL4/LBD) (Gallus gallus, UniProt O42392); experiment: cell-based
# T5 sequence (O42392 113-451): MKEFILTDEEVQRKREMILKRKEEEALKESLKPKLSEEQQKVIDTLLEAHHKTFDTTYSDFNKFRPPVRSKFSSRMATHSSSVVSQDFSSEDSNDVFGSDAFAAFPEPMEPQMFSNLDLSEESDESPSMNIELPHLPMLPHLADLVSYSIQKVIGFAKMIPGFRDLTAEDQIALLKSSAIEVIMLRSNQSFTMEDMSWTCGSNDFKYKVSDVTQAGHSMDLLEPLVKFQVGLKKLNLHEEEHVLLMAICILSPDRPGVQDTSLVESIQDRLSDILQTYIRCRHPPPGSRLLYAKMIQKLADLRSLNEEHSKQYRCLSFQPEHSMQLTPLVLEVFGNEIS
# [7] = reference maximal activator ([…])
SMILES,EC50 [1] [µM],Emax [3] [%],other results
C[C@H](CCCC(CO)COS(=O)(=O)O)[C@H]1CC[C@H]2[C@@H]3[C@H](O)C[C@H]4C[C@H](O)CC[C@]4(C)[C@H]3C[C@H](O)[C@]12C (stereo partly drawn) [5α-Cyprinol-27-sulfate],8.2,,
"CC(=O)[C@H]1CC[C@H]2[C@@H]3CC[C@@H]4CC(=O)CC[C@]4(C)[C@H]3CC[C@]12C [5β-pregnane-3,20-dione]",,,EC50 [2]: 4 µM
C[C@]12CC[C@@H]3c4ccc(O)cc4CC[C@H]3[C@@H]1CC[C@@H]2O [Estradiol],9.6,47,
C=C1CC[C@H](O)C/C1=C/C=C1\CCC[C@]2(C)[C@@H]([C@H](C)CCCC(C)(C)O)CC[C@@H]12 [25-Hydroxyvitamin D3],,,Emax [4]: 110%
"C[C@H](CCC(=O)NCCS(=O)(=O)O)[C@H]1CC[C@H]2[C@@H]3[C@H](O)C[C@@H]4C[C@H](O)CC[C@]4(C)[C@H]3CC[C@]12C [TCDCA, taurochenodeoxycholic acid]",,59,EC50 [2]: 4.8 ± 0.3 µM
C[C@]12CCC(=O)C=C1CC[C@@H]1[C@@H]2C(=O)C[C@@]2(C)[C@H]1CC[C@]2(O)C(=O)CO [Cortisone],12.2,19,
CC(=O)O[C@@H]1CC[C@@]2(C)[C@H](CC[C@@H]3[C@@H]2CC[C@]2(C)[C@@H]([C@H](C)CCC(=O)O)CC[C@@H]32)C1 [LCA acetate],,,Emax [4]: 61%
C[C@]12CC[C@H](OS(=O)(=O)O)CC1=CC[C@@H]1[C@@H]2CC[C@]2(C)C(=O)CC[C@@H]12 [DHEA_sulfate],8.5,70,
CC(=O)[C@H]1CC[C@H]2[C@@H]3CC=C4C[C@@H](O)CC[C@]4(C)[C@H]3CC[C@]12C [Pregnenolone],3.3,34,
"C[C@H](CCC(=O)O)[C@H]1CC[C@H]2[C@@H]3[C@H](O)C[C@@H]4C[C@H](O)CC[C@]4(C)[C@H]3CC[C@]12C [CDCA, 3α,7α-dihydroxy-5β-cholan-24-oic acid]",15.6,38,
CC(C)c1onc(-c2c(Cl)cccc2Cl)c1COc1ccc(/C=C/c2cccc(C(=O)O)c2)c(Cl)c1 [GW4064],,,"EC50 [5, 7]: 2.8 ± 0.8 µM"
C[C@H](CCC(=O)O)[C@H]1CC[C@H]2[C@@H]3CC[C@H]4CCCC[C@]4(C)[C@H]3CC[C@]12C [5α-Cholan-24-oic acid],,,Emax [4]: 3%
CCCCOC(=O)c1ccc(N)cc1 [n-butyl 4-amino benzoate],,88,EC50 [2]: 25.6 ± 1.4 µM
C[C@H](CCC(=O)O)[C@H]1CC[C@H]2[C@@H]3CC[C@@H]4C[C@@H](O)CC[C@]4(C)[C@H]3CC[C@]12C [Iso-LCA],,,Emax [4]: 4%
"C[C@H](CCC(=O)O)[C@H]1CC[C@H]2[C@@H]3CC[C@@H]4C[C@H](O)CC[C@]4(C)[C@H]3CC[C@]12C [LCA, 3α-hydroxy-5β-cholan-24-oic acid]",81,10,Emax [4]: 12%; EC50 [5]: 20.8 ± 1 µM; EC50 [6]: 50.3 ± 7.4 µM
C[C@@]12CCC[C@H]1[C@@H]1CC[C@H]3C[C@H](O)CC[C@]3(C)[C@H]1CC2 [5α-androstan-3α-ol],,,"EC50 [2, 7]: 6.1 ± 0.7 µM"
C[C@H](CCC(=O)NCCS(=O)(=O)O)[C@H]1CC[C@H]2[C@@H]3CC[C@@H]4C[C@H](O)CC[C@]4(C)[C@H]3CC[C@]12C [Tauro-LCA],19.1,29,
C[C@H](CCC(=O)O)[C@H]1CC[C@H]2[C@@H]3CC[C@@H]4C[C@H](O)CC[C@]4(C)[C@H]3C[C@H](O)[C@]12C [Deoxycholic acid],9,33,
CC(=O)[C@H]1CC[C@H]2[C@@H]3CC[C@@H]4CC(=O)CC[C@]4(C)[C@H]3CC[C@]12C [5β-Pregnanedione],,73,
C[C@H](CCC(=O)O)[C@H]1CC[C@H]2[C@@H]3CC[C@@H]4CC(=O)CC[C@]4(C)[C@H]3CC[C@]12C [3_Keto_LCA],42.3,65,Emax [4]: 17%
O=S(=O)(c1ccccc1)N(CC(F)(F)F)c1ccc(C(O)(C(F)(F)F)C(F)(F)F)cc1 [T-0901317],7.7,17,
C[C@]12CC[C@@H](O)C[C@@H]1CC[C@@H]1[C@@H]2CC[C@]2(C)C=CC[C@@H]12 [5α-Androst-16-en-3α-ol],7.4,58,
CC(=O)[C@H]1CC[C@H]2[C@@H]3CCC4=CC(=O)CC[C@]4(C)[C@H]3CC[C@]12C [Progesterone],8.9,33,
